What was measured:
[1] = tested on: MKN1; experiment: Cell growth inhibition, human stomach cancer MKN1; assay type: cell-based
Method: (§1) KB cells were purchased from Human Science Research Resource Bank (Osaka, Japan). The cells were cultured in Earle's MEM (GIBCO BRL) containing 10% FBS (Bio Whittaker) at 37° C. under 5% CO2. After 24 hours the test compounds were added to the cells at the indicated concentrations. 72 hours later the cells were stained with tripan blue and counted manually. IC50 is calculated as the concentration (aqueous solution) of complex required to inhibit growth of cells by 50%.
(§2) In a similar fashion a representative number of examples of compounds of the invention were tested for their ability to inhibit the growth/proliferation of cell types representing a number of different cancers. The results are provided in Tables 4-13, below, which provide the Inhibition Constants (IC50, μM) for each compound across various cell lines.

[2] = tested on: NCI-H23; experiment: Cell growth inhibition, lung cancer cell line NCI-H23; assay type: cell-based
Method: as §1, §2

[3] = tested on: HCC2998; experiment: Cell growth inhibition, colon cancer cell line HCC2998; assay type: cell-based
Method: as §1, §2

[4] = tested on: HT-29; experiment: Cell growth inhibition, colon cancer cell line HT-29; assay type: cell-based; conditions: HT-29, colon cancer cell line
Method: as §1, §2

[5] = tested on: RXF-631L; experiment: Cell growth inhibition, renal cancer RXF-631L; assay type: cell-based
Method: as §1, §2

[6] = tested on: all cell types (cancer cell lines of Tables 4-12); experiment: Cell growth inhibition, mean over all cell types of the panel; assay type: cell-based; conditions: mean over all cell lines of Tables 4-12
Method: as §1, §2

[7] = tested on: OVCAR-8; experiment: Cell growth inhibition, ovarian cancer cell line OVCAR-8; assay type: cell-based; conditions: OVCAR-8, ovarian cancer cell line
Method: as §1, §2

[8] = tested on: NCI-H226; experiment: Cell growth inhibition, lung cancer cell line NCI-H226; assay type: cell-based
Method: as §1, §2

[9] = tested on: NCI-H522; experiment: Cell growth inhibition, lung cancer cell line NCI-H522; assay type: cell-based
Method: as §1, §2

[10] = tested on: SK-OV-3; experiment: Cell growth inhibition, ovarian cancer cell line SK-OV-3; assay type: cell-based; conditions: SK-OV-3, ovarian cancer cell line
Method: as §1, §2

[11] = tested on: SF-295; experiment: Cell growth inhibition, brain cancer cell line SF-295; assay type: cell-based; conditions: SF-295, brain cancer cell line
Method: as §1, §2

[12] = tested on: St-4; experiment: Cell growth inhibition, human stomach cancer St-4; assay type: cell-based; conditions: St-4, human stomach cancer
Method: as §1, §2

[13] = tested on: OVCAR-4; experiment: Cell growth inhibition, ovarian cancer cell line OVCAR-4; assay type: cell-based; conditions: OVCAR-4, ovarian cancer cell line
Method: as §1, §2

[14] = tested on: U251; experiment: Cell growth inhibition, brain cancer cell line U251; assay type: cell-based
Method: as §1, §2

[15] = tested on: LOX-IMVI; experiment: Cell growth inhibition, melanoma cell line LOX-IMVI; assay type: cell-based
Method: as §1, §2

[16] = tested on: HBC-5; experiment: Cell growth inhibition, breast cancer cell line HBC-5; assay type: cell-based; conditions: HBC-5, breast cancer cell line
Method: as §1, §2

[17] = tested on: DU-145; experiment: Cell growth inhibition, prostatic cancer DU-145; assay type: cell-based, human; conditions: DU-145, prostatic cancer
Method: as §1, §2

[18] = tested on: MKN45; experiment: Cell growth inhibition, human stomach cancer MKN45; assay type: cell-based
Method: as §1, §2

[19] = tested on: MDA-MB-231; experiment: Cell growth inhibition, breast cancer cell line MDA-MB-231; assay type: cell-based; conditions: MDA-MB-231, breast cancer cell line
Method: as §1, §2

[20] = tested on: KM-12; experiment: Cell growth inhibition, colon cancer cell line KM-12; assay type: cell-based; conditions: KM-12, colon cancer cell line
Method: as §1, §2

[21] = tested on: MKN74; experiment: Cell growth inhibition, human stomach cancer MKN74; assay type: cell-based
Method: as §1, §2

[22] = tested on: DMS273; experiment: Cell growth inhibition, lung cancer cell line DMS273; assay type: cell-based
Method: as §1, §2

[23] = tested on: SF-268; experiment: Cell growth inhibition, brain cancer cell line SF-268; assay type: cell-based; conditions: SF-268, brain cancer cell line
Method: as §1, §2

[24] = tested on: NCI-H460; experiment: Cell growth inhibition, lung cancer cell line NCI-H460; assay type: cell-based
Method: as §1, §2

[25] = tested on: DMS114; experiment: Cell growth inhibition, lung cancer cell line DMS114; assay type: cell-based
Method: as §1, §2

[26] = tested on: OVCAR-3; experiment: Cell growth inhibition, ovarian cancer cell line OVCAR-3; assay type: cell-based; conditions: OVCAR-3, ovarian cancer cell line
Method: as §1, §2

[27] = tested on: HCT-116; experiment: Cell growth inhibition, colon cancer cell line HCT-116; assay type: cell-based; conditions: HCT-116, colon cancer cell line
Method: as §1, §2

[28] = tested on: MKN28; experiment: Cell growth inhibition, human stomach cancer MKN28; assay type: cell-based
Method: as §1, §2

[29] = tested on: HCT-15; experiment: Cell growth inhibition, colon cancer cell line HCT-15; assay type: cell-based; conditions: HCT-15, colon cancer cell line
Method: as §1, §2

[30] = tested on: PC-3; experiment: Cell growth inhibition, prostatic cancer PC-3; assay type: cell-based; conditions: PC-3, prostatic cancer
Method: as §1, §2

[31] = tested on: SF-539; experiment: Cell growth inhibition, brain cancer cell line SF-539; assay type: cell-based; conditions: SF-539, brain cancer cell line
Method: as §1, §2

[32] = tested on: A549; experiment: Cell growth inhibition, lung cancer cell line A549; assay type: cell-based
Method: as §1, §2

[33] = tested on: SNB-78; experiment: Cell growth inhibition, brain cancer cell line SNB-78; assay type: cell-based; conditions: SNB-78, brain cancer cell line
Method: as §1, §2

[34] = tested on: KB cells; experiment: In vitro assay, cell growth inhibition (KB cells); assay type: cell-based; conditions: 72 hours
Method: as §1

[35] = tested on: MKN7; experiment: Cell growth inhibition, human stomach cancer MKN7; assay type: cell-based
Method: as §1, §2

[36] = tested on: HBC-4; experiment: Cell growth inhibition, breast cancer cell line HBC-4; assay type: cell-based; conditions: HBC-4, breast cancer cell line
Method: as §1, §2

[37] = tested on: MCF-7; experiment: Cell growth inhibition, breast cancer cell line MCF-7; assay type: cell-based; conditions: MCF-7, breast cancer cell line
Method: as §1, §2

[38] = tested on: ACHN; experiment: Cell growth inhibition, renal cancer ACHN; assay type: cell-based
Method: as §1, §2

[39] = tested on: SNB-75; experiment: Cell growth inhibition, brain cancer cell line SNB-75; assay type: cell-based; conditions: SNB-75, brain cancer cell line
Method: as §1, §2

[40] = tested on: OVCAR-5; experiment: Cell growth inhibition, ovarian cancer cell line OVCAR-5; assay type: cell-based; conditions: OVCAR-5, ovarian cancer cell line
Method: as §1, §2

[41] = tested on: BSY-1; experiment: Cell growth inhibition, breast cancer cell line BSY-1; assay type: cell-based; conditions: BSY-1, breast cancer cell line
Method: as §1, §2

[Cl-].[Cl-].c1cc[n+]2c(c1)-c1cccc[n+]1[Pd-2]21[NH2+]CC[NH+]1Cc1c2ccccc2cc2ccccc12 [Example 5, [Pd(bpy)(Aten)]Cl2]
log10 IC50 (M) [1]: -5.28 | log10 IC50 (M) [2]: -4.88 | log10 IC50 (M) [3]: -5.54 | log10 IC50 (M) [4]: -5.25 | log10 IC50 (M) [5]: -5.43 | log10 IC50 (M) [6]: -5.18 | log10 IC50 (M) [7]: -5.13 | log10 IC50 (M) [8]: -5.41 | log10 IC50 (M) [9]: -5.22 | log10 IC50 (M) [10]: -5.1 | log10 IC50 (M) [11]: -5.31 | log10 IC50 (M) [12]: -5.12 | log10 IC50 (M) [13]: -5.06 | log10 IC50 (M) [14]: -5 | log10 IC50 (M) [15]: -5.15 | log10 IC50 (M) [16]: -4.98 | log10 IC50 (M) [17]: -5.1 | log10 IC50 (M) [18]: -5.08 | log10 IC50 (M) [19]: -5.29 | log10 IC50 (M) [20]: -5.22 | log10 IC50 (M) [21]: -5.33 | log10 IC50 (M) [22]: -5.24 | log10 IC50 (M) [23]: -5.27 | log10 IC50 (M) [24]: -5.86 | log10 IC50 (M) [25]: -5.28 | log10 IC50 (M) [26]: -4.95 | log10 IC50 (M) [27]: -5.38 | log10 IC50 (M) [28]: -4.86 | log10 IC50 (M) [29]: -5.14 | log10 IC50 (M) [30]: -4.9 | log10 IC50 (M) [31]: -5.36 | log10 IC50 (M) [32]: -4.88 | log10 IC50 (M) [33]: -4.67 | KB cells remaining/growth in percent (Table 2, untitled) ([34]; 1 μg/ml): 86.9% | KB cells remaining/growth in percent (Table 2, untitled) ([34]; 3 μg/mL): 81.4% | KB cells remaining/growth in percent (Table 2, untitled) ([34]; 10 μg/mL): 75.1% | KB cells remaining/growth in percent (Table 2, untitled) ([34]; 30 μg/mL): 44.7% | KB cells remaining/growth in percent (Table 2, untitled) ([34]; 100 μg/mL): 12.3% | IC50 ([34]; concentration to inhibit growth of cells by 50%): 36 µM | log10 IC50 (M) [35]: -5.04 | log10 IC50 (M) [36]: -4.91 | log10 IC50 (M) [37]: -5.28 | log10 IC50 (M) [38]: -5.22 | log10 IC50 (M) [39]: -5.16 | log10 IC50 (M) [40]: -5.3 | log10 IC50 (M) [41]: -5.34

[Cl-].[Cl-].c1cc[n+]2c(c1)-c1cccc[n+]1[Pt-2]21[NH2+]CCC[NH+]1Cc1c2ccccc2cc2ccccc12 [Example 7, Pt(bpy)(AtC3)]
log10 IC50 (M) [1]: -5.6 | log10 IC50 (M) [2]: -5.53 | log10 IC50 (M) [3]: -5.7 | log10 IC50 (M) [4]: -5.69 | log10 IC50 (M) [5]: -5.67 | log10 IC50 (M) [6]: -5.68 | log10 IC50 (M) [7]: -5.52 | log10 IC50 (M) [8]: -5.64 | log10 IC50 (M) [9]: -5.77 | log10 IC50 (M) [10]: -5.61 | log10 IC50 (M) [11]: -5.62 | log10 IC50 (M) [12]: -5.61 | log10 IC50 (M) [13]: -5.7 | log10 IC50 (M) [14]: -5.66 | log10 IC50 (M) [15]: -5.76 | log10 IC50 (M) [16]: -5.89 | log10 IC50 (M) [17]: -5.73 | log10 IC50 (M) [18]: -5.63 | log10 IC50 (M) [19]: -5.78 | log10 IC50 (M) [20]: -5.69 | log10 IC50 (M) [21]: -5.63 | log10 IC50 (M) [22]: -5.68 | log10 IC50 (M) [23]: -5.62 | log10 IC50 (M) [24]: -5.71 | log10 IC50 (M) [25]: -5.76 | log10 IC50 (M) [26]: -5.68 | log10 IC50 (M) [27]: -5.72 | log10 IC50 (M) [28]: -5.64 | log10 IC50 (M) [29]: -5.56 | log10 IC50 (M) [30]: -5.59 | log10 IC50 (M) [31]: -5.75 | log10 IC50 (M) [32]: -5.68 | log10 IC50 (M) [33]: -5.54 | log10 IC50 (M) [35]: -5.62 | log10 IC50 (M) [36]: -5.76 | log10 IC50 (M) [37]: -5.69 | log10 IC50 (M) [38]: -5.67 | log10 IC50 (M) [39]: -5.59 | log10 IC50 (M) [40]: -5.8 | log10 IC50 (M) [41]: -5.89
